The source of these data is ChEMBL document CHEMBL1201862, “PubChem BioAssay data set” (2004).

Test systems include A549; CAKI-1; EKVX; HCT-15; HL-60; HOP-92; LOX IMVI; MOLT-4; Malme-3M; NCI-H23; OVCAR-3; OVCAR-4; OVCAR-5; OVCAR-8; RXF 393; SK-MEL-28; SK-MEL-5; UO-31; ACHN; M14.
What all share (experiment): inhibition of tumour cell growth, NCI panel, 48 h

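These data come from cells grown in 96-well plates and exposed to compound for 48 hours at five concentrations. The concentration for 50% growth inhibition is given as GI50.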 Calls of active or inactive are those of the source. Rule as the data show it: active = GI50 up to about 1.1 µM and inactive = higher.

With `CN1C(=O)c2ccccc2NC(=O)c2cnn(C)c21`, the GI50 with A549 is > 100 µM (inactive); in the assay on CAKI-1 it was > 100 µM (inactive); with EKVX, > 100 µM (inactive); in the assay on HCT-15 it was > 100 µM; in the assay with HL-60 it was > 100 µM (inactive); in the assay with HOP-92, > 100 µM (inactive). The GI50 with LOX IMVI, in the assay on MOLT-4, in the assay on Malme-3M, in the assay with NCI-H23, with OVCAR-3 and in the assay with OVCAR-4 was > 100 µM (inactive) in each case. In addition, the GI50 in the assay with OVCAR-5, in the assay on OVCAR-8, in the assay with RXF 393, with SK-MEL-28, in the assay with SK-MEL-5 and in the assay with UO-31 was > 100 µM (inactive) in each case.
On to `Nc1ccn(C2OC(COP(=O)(O)Oc3ccccc3)C(O)C2O)c(=O)n1` (configuration not stated), for which the GI50 was 3.73 µM (inactive) with A549; 24.5 µM (inactive) with CAKI-1; 13.5 µM (inactive) in the assay on EKVX; > 60 µM in the assay on HCT-15; 61.2 µM (inactive) with HL-60; 18.6 µM (inactive) with HOP-92. For the same compound, the GI50 in the assay with LOX IMVI was 6.61 µM (inactive); with MOLT-4, 0.979 µM (active); in the assay with Malme-3M, > 35.3 µM (inactive); in the assay on NCI-H23 it was 7.36 µM (inactive); in the assay on OVCAR-3 it was > 100 µM (inactive); in the assay with OVCAR-4, > 100 µM (inactive). The GI50 with OVCAR-5 is > 100 µM (inactive); in the assay with OVCAR-8, 7.67 µM (inactive); with RXF 393, > 45.8 µM (inactive); with SK-MEL-28 it was 9.38 µM (inactive); in the assay on SK-MEL-5, > 42.9 µM (inactive); in the assay on UO-31, 30.6 µM (inactive).
As for `COc1ccc(N2NC(c3ccccc3)(c3ccccc3)C(C)C2=O)cc1` (configuration not stated), the GI50 in the assay on A549 is 34.4 µM (inactive); in the assay on ACHN it was 42.7 µM (inactive); with CAKI-1 it was 54.2 µM (inactive); in the assay with EKVX, 68.7 µM (inactive); with HCT-15, 39.5 µM; in the assay with HL-60 it was 35.3 µM (inactive). The GI50 with HOP-92 was 48.5 µM (inactive); with LOX IMVI, 44 µM (inactive); with M14, 57.1 µM (inactive); in the assay on MOLT-4, 49.2 µM (inactive); in the assay on Malme-3M, 61.7 µM (inactive); in the assay with NCI-H23, 65.6 µM (inactive). For the same compound, the GI50 with OVCAR-3 is > 100 µM (inactive); in the assay with OVCAR-4, > 100 µM (inactive); with OVCAR-5 it was 56.2 µM (inactive); in the assay on OVCAR-8, 79.8 µM (inactive); with RXF 393, 52.4 µM (inactive); with SK-MEL-28 it was > 100 µM (inactive). Also, the GI50 in the assay on SK-MEL-5 was 58.9 µM (inactive); in the assay on UO-31, 30.1 µM (inactive).
Consider `C[n+]1cccc2c(=O)c3ccccc3oc21`, for which the GI50 was > 100 µM (inactive) with A549; > 100 µM (inactive) with ACHN; > 100 µM (inactive) in the assay on CAKI-1; > 100 µM (inactive) with EKVX; > 100 µM with HCT-15; > 100 µM (inactive) in the assay on HL-60. The GI50 in the assay on HOP-92, with LOX IMVI, in the assay with M14, in the assay with Malme-3M, in the assay on NCI-H23 and in the assay with OVCAR-3 was > 100 µM (inactive) each time. The GI50 in the assay on OVCAR-4, in the assay on OVCAR-5, in the assay with OVCAR-8, with RXF 393, in the assay with SK-MEL-28 and in the assay on SK-MEL-5 was > 100 µM (inactive) in each case. Also, the GI50 with UO-31 is 69.5 µM (inactive).
Turning to `O=C(Nc1nnc(S)[nH]1)C(=O)C(c1cnc2ccc([N+](=O)[O-])cc2n1)[N+](=O)[O-]` (configuration not stated), the GI50 in the assay with A549 was > 100 µM (inactive); with ACHN, 94.8 µM (inactive); in the assay with CAKI-1, > 100 µM (inactive); in the assay with EKVX, > 100 µM (inactive); with HCT-15 it was 72.9 µM; in the assay on HL-60, > 100 µM (inactive). The GI50 with HOP-92, in the assay with LOX IMVI, with M14, with MOLT-4, in the assay on Malme-3M and in the assay on NCI-H23 was > 100 µM (inactive) throughout. Besides, the GI50 with OVCAR-3, with OVCAR-4, in the assay with OVCAR-5, with OVCAR-8, in the assay with RXF 393 and in the assay with SK-MEL-28 was > 100 µM (inactive) each time. Besides, the GI50 in the assay with SK-MEL-5 and with UO-31 was > 100 µM (inactive) in each case.
For the compound `O=c1[nH]c(=S)[nH]c2c(C3OC(CO)C(O)C3O)nsc12` (configuration not stated), the GI50 with A549 is > 100 µM (inactive); in the assay with CAKI-1 it was > 100 µM (inactive); in the assay on EKVX, > 100 µM (inactive); in the assay on HCT-15, > 100 µM; with HL-60 it was > 100 µM (inactive); in the assay with HOP-92, > 100 µM (inactive). Besides, the GI50 in the assay with LOX IMVI, in the assay with M14, with MOLT-4, with Malme-3M, with OVCAR-3 and with OVCAR-4 was > 100 µM (inactive) each time. Also, the GI50 in the assay with OVCAR-5, with OVCAR-8, in the assay on RXF 393, in the assay with SK-MEL-28 and in the assay on SK-MEL-5 was > 100 µM (inactive) in each case.
Turning to `CC1(C)Cc2nnsc2C2=C1C(=O)CCS2`, the GI50 with A549 was > 100 µM (inactive); in the assay with ACHN it was > 100 µM (inactive); with CAKI-1 it was > 100 µM (inactive); in the assay on EKVX it was > 100 µM (inactive); in the assay on HCT-15, > 100 µM; with HL-60 it was > 100 µM (inactive). For the same compound, the GI50 with HOP-92 is 32.7 µM (inactive); in the assay on LOX IMVI, > 100 µM (inactive); in the assay with M14, > 100 µM (inactive); in the assay with MOLT-4, > 100 µM (inactive); in the assay with Malme-3M, > 100 µM (inactive); with NCI-H23 it was > 100 µM (inactive). For the same compound, the GI50 in the assay with OVCAR-3, in the assay with OVCAR-4, with OVCAR-5, with OVCAR-8, in the assay with RXF 393 and in the assay on SK-MEL-28 was > 100 µM (inactive) throughout. Further, the GI50 in the assay with SK-MEL-5 and in the assay with UO-31 was > 100 µM (inactive) in each case.
